# From US20110173718A1, “HERBICIDE TOLERANT PLANTS” (SYNGENTA CROP PROTECTION, INC., priority 2008, published 2011)
# “And” between values parts separate entries of the source, which are not always exact repeats. Equal entries are not always repeated.
# What was measured:
# [1] = tested on: Arabidopsis HST transgenic tobacco plants; experiment: Glasshouse spray test, Arabidopsis HST transgenic tobacco; assay type: in vivo; settings: 100 g, individual T0 lines
# Description: For example the Arabidopsis HST SEQ ID # 11 is cloned behind a double 35s CMV promoter sequence and a TMV translational enhancer sequence and in front of the 3′ terminator from the nos gene. This expression cassette is ligated into pMJB1 (described in WO98/20144) and then into pBIN19 and then transformed into Agrobacterium tuniqfaciens strains LBA4404 prior to plant transformation.
# For example, the full length Arabidopsis HST seq ID # 11 is fused to the TMV translational enhancer sequence (SEQ ID #33) by overlapping PCR and, at the same time, 5′ XhoI site and a 3′KpnI site are added by PCR. Site-directed mutagenesis is performed to remove an internal XhoI site. The TMV/HPPD fusion is removed from the pBIN19 by digestion with XhoI/KpnI and is replaced by the TMV/HST fusion (SEQ ID #34). The TMV/HST fusion is now cloned behind a double 35s promoter and in front of the 3′ terminator from the nos gene. Again the modified pBIN19 vector (‘pBinAT HST’) is then transformed into Agrobacterium tumefaciens strain LBA4404.
# A master plate of Agrobacterium tumefaciens containing the binary vector pBinAT HST (described above) or analogous binary vector comprising a different HST is used to inoculate 10 ml LB containing 100 mg/1 Rifampicin plus 50 mg/1 Kanamycin using a single bacterial colony. This is incubated overnight at 28° C. shaking at 200 rpm. This entire overnight culture is used to inoculate a 50 ml volume of LA (plus antibiotics). Again this is cultured overnight at 28° C. shaking at 200 rpm. The Agrobacterium cells are pelleted by centrifuging at 3000 rpm for 15 minutes then resuspended in MS medium with 30 g/1 sucrose, pH 5.9 to an OD ([…])=0.6. This suspension is dispensed in 25 ml aliquots into petri dishes.
# Clonal micro-propagated tobacco shoot cultures are used to excise young (not yet fully expanded) leaves. The mid rib and outer leaf margins are removed and discarded, the remaining lamina is cut into 1 cm squares. These are transferred to the Agrobacterium suspension for 20 minutes. Explants are then removed, dabbed on sterile filter paper to remove excess suspension then transferred to NBM medium (MS medium, 30 g/1 sucrose, 1 mg/1 BAP, 0.1 mg/1 NAA, pH 5.9, solidified with 8 g/1 Plantagar), with the abaxial surface of each explant in contact with the medium. Approximately 7 explants are transferred per plate, which are then sealed then maintained in a lit incubator at 25° C., 16 hour photoperiod for 3 days.
# Explants are then transferred to NBM medium containing 100 mg/1 Kanamycin plus antibiotics to prevent further growth of Agrobacterium (200 mg/1 timentin with 250 mg/1 carbenicillin). Further subculture on to this same medium is then performed every 2 weeks.
# As shoots start to regenerate from the callusing leaf explants these are removed to Shoot elongation medium (MS medium, 30 g/1 sucrose, 8 g/1 Plantagar, 100 mg/1 Kanamycin, 200 mg/1 timentin, 250 mg/1 carbenicillin, pH 5.9). Stable transgenic plants readily root within 2 weeks. To provide multiple plants per event to ultimately allow more than one herbicide test per transgenic plant all rooting shoots are micropropagated to generate 3 or more rooted clones.
# Putative transgenic plants that are rooting and show vigorous shoot growth on the medium incorporating Kanamycin are analysed by PCR using primers that amplified a 500 bp fragment within the Arabidopsis HST transgene.
# Rooted transgenic T0 plantlets are transferred from agar and potted into 50% peat, 50% John Innes soil no 3 or, for example, MetroMix® 380 soil (Sun Gro Horticulture, Bellevue, Wash.) with slow-release fertilizer in 3 inch round or 4 inch square pots and left regularly watered to establish for 8-12 d in the glass house. Glass house conditions are about 24-27° C. day; 18-21° C. night and approximately a 14 h (or longer in UK summer) photoperiod. Humidity is ˜65% and light levels up to 2000 μmol/m^2 at bench level. […]
# weeds = experiment: Glasshouse weed control by HST/HPPD (mesotrione) mixtures, post-emergence; assay type: in vivo; settings: post-emergence; for % damage, 1 g ai ha^−1 mesotrione / % damage, no-mesotrione: 14 DAT; for colby: difference to Colby expectation
# Method: Weed seeds are planted out in trays containing suitable soil (for example 50% peat, 50% John Innes soil no 3) and grown in the glass house conditions under 24-27° C. day; 18-21° C. night and approximately a 14 h (or longer in UK summer) photoperiod. Humidity is ˜65% and light levels up to 2000 μmol/m^2 at bench level. Trays are sprayed with test chemicals dissolved in water with 0.2-0.25% X-77 surfactant and sprayed from a boom on a suitable track sprayer moving at about 2 mph in a suitable track sprayer (for example a DeVries spray chamber with the nozzle about 2 inches from the plant tops). Spray volume is suitably 500-1000 l/ha. Sprays are carried out both pre-emergence and over small plants at about 7-12 d post-emergence
# Plants are assessed 14 DAT and herbicidal damage is scored on a scale from 0 to 100%. The HST inhibitor compound 2.30 (designated compound A in table 16 and 17), haloxydine (compound 1.1) and compound 2.13 (designated compound AE in tables 16 and 17) are sprayed at rates between 0 and 500 g/ha.
# [2] = ALOMY, 16 g/ha + 1 g ai/ha mesotrione
# [3] = ALOMY, 31 g/ha + 1 g ai/ha mesotrione
# [4] = ALOMY, 63 g/ha + 1 g ai/ha mesotrione
# [5] = ALOMY, 125 g/ha + 1 g ai/ha mesotrione
# [6] = ALOMY, 250 g/ha + 1 g ai/ha mesotrione
# [7] = ALOMY, 500 g/ha + 1 g ai/ha mesotrione
# [8] = ECHCG, 16 g/ha + 1 g ai/ha mesotrione
# [9] = ECHCG, 31 g/ha + 1 g ai/ha mesotrione
# [10] = ECHCG, 63 g/ha + 1 g ai/ha mesotrione
# [11] = ECHCG, 125 g/ha + 1 g ai/ha mesotrione
# [12] = ECHCG, 250 g/ha + 1 g ai/ha mesotrione
# [13] = ECHCG, 500 g/ha + 1 g ai/ha mesotrione
# [14] = SETFA, 16 g/ha + 1 g ai/ha mesotrione
# [15] = SETFA, 31 g/ha + 1 g ai/ha mesotrione
# [16] = SETFA, 63 g/ha + 1 g ai/ha mesotrione
# [17] = SETFA, 125 g/ha + 1 g ai/ha mesotrione
# [18] = SETFA, 250 g/ha + 1 g ai/ha mesotrione
# [19] = SETFA, 500 g/ha + 1 g ai/ha mesotrione
smiles,measurement,setting,value
CC(C)C(=O)Oc1c(-c2c(F)ccc(Br)c2Cl)c(=O)n(CC(F)F)c2nccnc12 [Compound 2.30],blch (% bleaching at the meristem relative to control plants),[1]; 7 DAT,30% (2×) and 5% (4×) and 10% (3×) and 15% (2×) and 50% and 70% (2×) and 20% (2×) and 0% (5×) and 40% and 100% and 80% and 25%
same,ht (% height reduction relative to control plants),[1]; 7 DAT,30% (4×) and 0% (7×) and 50% and 70% (3×) and 80% (3×) and 40% (2×) and 5% and 10% (2×) and 15% and 20%
same,blch (% bleaching at the meristem relative to control plants),[1]; 26 DAT,25% (2×) and 0% (16×) and 100% and 85% (2×) and 90% (4×)
same,ht (% height reduction relative to control plants),[1]; 26 DAT,75% (2×) and 5% (6×) and 15% (2×) and 30% (4×) and 50% (2×) and 60% and 80% and 90% (4×) and 35% and 10% (2×)
same,"% damage, 1 g ai ha^−1 mesotrione",weeds; [2],2%
same,colby,weeds; [2],0
same,"% damage, no-mesotrione","weeds; ALOMY, 16 g/ha",2%
same,"% damage, 1 g ai ha^−1 mesotrione",weeds; [3],3%
same,colby,weeds; [3],0
same,"% damage, no-mesotrione","weeds; ALOMY, 31 g/ha",3%
same,"% damage, 1 g ai ha^−1 mesotrione",weeds; [4],10%
same,colby,weeds; [4],5
same,"% damage, no-mesotrione","weeds; ALOMY, 63 g/ha",5%
same,"% damage, 1 g ai ha^−1 mesotrione",weeds; [5],20%
same,colby,weeds; [5],7
same,"% damage, no-mesotrione","weeds; ALOMY, 125 g/ha",13%
same,"% damage, 1 g ai ha^−1 mesotrione",weeds; [6],22%
same,colby,weeds; [6],7
same,"% damage, no-mesotrione","weeds; ALOMY, 250 g/ha",15%
same,"% damage, 1 g ai ha^−1 mesotrione",weeds; [7],35%
same,colby,weeds; [7],12
same,"% damage, no-mesotrione","weeds; ALOMY, 500 g/ha",23%
same,"% damage, 1 g ai ha^−1 mesotrione",weeds; [8],17%
same,colby,weeds; [8],−2
same,"% damage, no-mesotrione","weeds; ECHCG, 16 g/ha",12%
same,"% damage, 1 g ai ha^−1 mesotrione",weeds; [9],38%
same,colby,weeds; [9],13
same,"% damage, no-mesotrione","weeds; ECHCG, 31 g/ha",18%
same,"% damage, 1 g ai ha^−1 mesotrione",weeds; [10],42%
same,colby,weeds; [10],−5
same,"% damage, no-mesotrione","weeds; ECHCG, 63 g/ha",42%
same,"% damage, 1 g ai ha^−1 mesotrione",weeds; [11],53%
same,colby,weeds; [11],−7
same,"% damage, no-mesotrione","weeds; ECHCG, 125 g/ha",57%
same,"% damage, 1 g ai ha^−1 mesotrione",weeds; [12],68%
same,colby,weeds; [12],0
same,"% damage, no-mesotrione","weeds; ECHCG, 250 g/ha",65%
same,"% damage, 1 g ai ha^−1 mesotrione",weeds; [13],75%
same,colby,weeds; [13],6
same,"% damage, no-mesotrione","weeds; ECHCG, 500 g/ha",67%
same,"% damage, 1 g ai ha^−1 mesotrione",weeds; [14],18%
same,colby,weeds; [14],−5
same,"% damage, no-mesotrione","weeds; SETFA, 16 g/ha",23%
same,"% damage, 1 g ai ha^−1 mesotrione",weeds; [15],42%
same,colby,weeds; [15],10
same,"% damage, no-mesotrione","weeds; SETFA, 31 g/ha",32%
same,"% damage, 1 g ai ha^−1 mesotrione",weeds; [16],42%
same,colby,weeds; [16],8
same,"% damage, no-mesotrione","weeds; SETFA, 63 g/ha",33%
same,"% damage, 1 g ai ha^−1 mesotrione",weeds; [17],62%
same,colby,weeds; [17],5
same,"% damage, no-mesotrione","weeds; SETFA, 125 g/ha",57%
same,"% damage, 1 g ai ha^−1 mesotrione",weeds; [18],75%
same,colby,weeds; [18],10
same,"% damage, no-mesotrione","weeds; SETFA, 250 g/ha",65%
same,"% damage, 1 g ai ha^−1 mesotrione",weeds; [19],75%
same,colby,weeds; [19],5
same,"% damage, no-mesotrione","weeds; SETFA, 500 g/ha",70%
